{
  "source": "the NIST ThermoML archive (doi:10.1016/j.fluid.2018.01.019)",
  "key": {"[1]": {"assay": "refractive index (Na D-line) (dimensionless); xn = mol fraction of the nth substance listed", "details": "313.15 K; 101 kPa; Liquid; Standard Abbe refractometry; x1 = 0.333"}, "[2]": {"assay": "xn = mol fraction of the nth substance listed", "details": "313.15 K; 101 kPa; Liquid; Vibrating tube method; x1 = 0.333"}},
  "note": "Numbers after ± are expanded uncertainties.",
  "data": [
    {"smiles": "C[N+](C)(C)C.[Cl-]", "note": "[tetramethylammonium chloride] + OCCO", "values": [
      {"measurement": "refractive index", "setting": "[1]", "value": "1.45599 ± 0.00033"},
      {"measurement": "mass density", "setting": "[2]", "value": "1072.19 ± 0.19", "unit": "kg/m3"}
    ]}
  ]
}
